Measured values from patent publication US10154992B2, “Compounds and methods for treating HIV infection” (THE REGENTS OF THE UNIVERSITY OF CALIFORNIA, priority 2016, dated 2018).
Values after ≈ are worked out from the molar mass of the structure shown. Read-outs that look alike come from different tables or passages of the source. Where a SMILES comes first, the peptide text is derived from it. The star is where a group is joined. Cbz = O=C(OCc1ccccc1)*

Key:
Rev-RRE IIB interaction [1] = details: in vitro
Description: To further validate the hits, we used an electrophoretic mobility shift assay (EMSA) to evaluate which of the three hit scaffolds were capable of disrupting the Rev-RRE IIB interaction in vitro.

Rev-RRE IIB interaction [2] = biological target: T1, Rev-RRE IIB interaction (Human immunodeficiency virus type 1 group M subtype B, UniProt P04608+P04618); assay type: cell-based, HIV
T1 construct: with a fusion to HIV Rev (residues 3-70) was generated; expressed in transfected cells
Description: A library of approximately 4500 carboxamide-containing compounds was assembled and tested in the reporter cell line at 30 μM. Reporter cells were plated in a white 96-well plate and compounds were added to the cells using a Biomek FX robotic liquid handler (Beckman Coulter). The cells were incubated with the compound for 48 hours then assayed for luciferase activity (Promega Bright Glo). The cytotoxicity of each compound was determined in parallel via MTT-based cell viability assays.
(§1) Cells were counted and plated into white 384-well or 96-well cell-culture treated assay plates and compounds were added. After 48 hours, the cells were prepared for luminescence assays that were performed on a plate reader (Tecan Evolution or MD Analyst). The cytotoxicity of each compound was determined in parallel via MTT-based cell viability assays.
as §1, with “Tat hybrid reporter assay. […] Previously characterized thienopyridines and diaminoacridine were used as controls. Cells” for “Cells”, “384-well” for “384-well or 96-well”, “lumincescence” for “luminescence”
The RRE IIB-Rev screening cell line was plated in 384-well assay plates and compounds were added to the cells to a final concentration of 30 μM. Cells were prepared and assayed for luciferase activity. […] In parallel, MTT cell viability assays were performed to assess the toxicity of compounds and minimize the level of false positives.

PBMC = experiment: MTT toxicity in the PBMC replication assay; assay type: cell-based, Human; details: PBMC experiment; read-out: TC50 by MTT assay
Text: Results of this experiment are shown in FIG. 9 where the replication and toxicity curves for isolate 93BR021 (CCR5-tropic, group M, subtype B) are shown.

[3] = Human liver microsome stability; assay type: in vitro ADME; details: human liver microsomes; read-out: HLM T1/2
Text: The more lipophilic analogs 4a and 4e also appear more prone to oxidative metabolism in the presence of human liver microsomes. This is perhaps unsurprising given the presence of methoxyphenyl (4a) and benzylic methylene (4e) functions, both potential sites of oxidative metabolism.

[4] = biological target: T2, HIV RRE IIB Luciferase reporter with HIV Tat (1-48)-Rev 3-70 (Human immunodeficiency virus type 1 group M subtype B, UniProt P04608+P04618); experiment: Tat-hybrid transient reporter assay in 293T cells, RRE IIB reporter; assay type: cell-based; details: 100 nM compound; 293T transient transfection
T2 construct: HIV Tat (1-48)-Rev 3-70 expression construct; expressed in transfected cells; host or cells: 293T, transient transfection
Description: (§2) Testing the specificity of the thienopyridine compounds using the Tat-hybrid reporter system.
(§3) A 96 well plate was seeded with 10,000 293T cells. We transfected each well with 10 ng of the HIV TAR Luciferase reporter and 5 ng of the HIV Tat 1-72 expression construct or 10 ng of the HIV RRE IIB Luciferase reporter and 5 ng of the HIV Tat (1-48)-Rev 3-70 expression construct, and with 2 ng of a CMV Renilla luciferase control. Compound 4a was added to a final concentration of 3.16, 10, 31.6, and 100 nM. Each condition was performed in quadruplet. Note, it was necessary to use transient transfection assays rather than stable cell lines in order to compare the two reporter systems, although the level of inhibition conferred by the compounds in the transient assays was lower than in the cell lines. The cells were incubated for 48 hours and dual luciferase assays were performed according to the manufacturers protocol (Promega). Reporter activity was normalized against the Renilla control.

[5] = Aqueous solubility pH 7.4; assay type: physicochemical; details: aqueous solution, pH 7.4, pH 7.4, aqueous buffer
Text: (§4) We next evaluated analogs 2b, 2f, 4a, and 4e in a panel of standard in vitro ADME assays to assess drug-like properties and the potential for efficacy in animals.

[6] = biological target: T3, HIV TAR Luciferase reporter with HIV Tat 1-72 (Human immunodeficiency virus type 1 group M subtype B, UniProt P04608); experiment: Tat-hybrid transient reporter assay in 293T cells, TAR reporter; assay type: cell-based; details: 100 nM compound; 293T transient transfection
T3 construct: 5 ng of the HIV Tat 1-72 expression construct; expressed in transfected cells; host or cells: 293T, transient transfection
Description: as §2, §3

HIV-1 isolate NL4-3 = experiment: Virus spreading / replication assay in Jurkat cells, p24 ELISA; assay type: cell-based; details: Human immunodeficiency virus 1, NL43, Jurkat; Table 2; NL4-3; read-out: Jurkat HIV-1 replication assay
Description: Virus spreading assay. Jurkat (E6-1) cells (NIH AIDS Reagent Program) were cultured in RPMI media supplemented with 25 mM HEPES pH 7.4, 10% heat-inactivated fetal calf serum (Hyclone, Waltham Mass.), and 1% penicillin/streptomycin. 2.5×10^5 Jurkat cells were inoculated with 250 pg p24 in 250 μl media in a 96-well flat bottom polystyrene cell culture microplate. Input virus was removed after 18 hours via washing cells phosphate-buffered saline (PBS). Cells were resuspended in 250 μl of media containing compounds at the described concentrations. Cells were incubated at 37° C., 5% CO2 and supernatant samples were removed every 48 hours and replaced with fresh media containing the compounds. Viral replication was quantified using ELISA to quantify p24 viral capsid protein in the culture supernatant. Mouse monoclonal and rabbit polyclonal α-p24 antibodies used in the ELISA were obtained from the NIH AIDS Reagent Program. Toxicity was monitored using the MTT cell viability assay (Mosmann, T. (1983). J Immunol Methods 65, 55-63).

[7] = system: HIV-1 provirus in U1 cells; experiment: U1 activation (latency) assay, p24 ELISA; assay type: cell-based
Description: (§5) U1 activation assay. U1 cells obtained from the AIDS Research and Reference Reagent Program were maintained under standard culture conditions in RPMI 1640 supplemented with 10% fetal bovine serum (heat inactivated), 2 mM L-glutamine, 100U/mL penicillin and 100 μg/mL streptomycin. U1 cells contain an integrated copy of a phorbol ester inducible HIV-1 provirus and addition of phytohemagglutinin (PHA) to the cell culture was used to induce virus production. On the day of the assay, the U1 cells were activated with PHA and 250,000 cells were plated in 96-well plates. Test compounds were diluted in media and applied to the cells at final concentrations from 1 to 10,000 nM. Cultures were incubated for 3 days and supernatants harvested. Cell-free virus production was measured by p24 ELISA on culture supernatant. Compound toxicity was determined by MTT cell-viability assay in parallel assays.

[8] = system: HIV RRE (Rev-dependent) reporter; experiment: Rev reporter assay in 293T cells, p24 ELISA; assay type: cell-based; details: Human immunodeficiency virus 1, HEK-293T, Table 2
Description: Rev reporter assay. In the Rev reporter assay, 293T cells were transfected with an HIV RRE (Rev-dependent) reporter plus a pSV2 Rev expression plasmid (Hope, T. J., et al. (1990) Proc. Natl. Acad. Sci. USA 87, 7787-7791). Compounds were incubated with the cells for 48 hours and reporter activity was assessed by p24 ELISA. Leptomycin B, an inhibitor of the Crm1 pathway that inhibits Rev-dependent export, was included as a control. The cytotoxicity of each compound was determined in parallel via MTT-based cell viability assays.

Caco-2 permeability = assay type: in vitro ADME; details: human
Text: as §4

[9] = system: Vpu-dependent degradation of Rev; experiment: Vpu-dependent degradation of Rev, western blot in transfected 293T cells; assay type: cell-based, HIV; details: co-transfection with 100 ng Vpu expression plasmid
Description: Vpu is a regulator of Rev. In this experiment, Rev was expressed in the presence or absence of Vpu and levels of both proteins were measured by western blot. Flag tagged Rev and either Flag tagged Vpu or Flag tagged GFP were transfected to 293T cells.
Next we tested the Vpu-dependent degradation of Rev with the proteasome inhibitor MG132.

[10] = system: Tat-hybrid reporter cell lines (HeLa); experiment: MTT cell viability run in parallel with the Tat-hybrid assay; assay type: cell-based; details: Table 6; at 50,000 nM
Outline: (§6)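 HeLa reporter lines (Tat-hybrid) treated with compound for 48 hours, then luciferase luminescence measured. Cytotoxicity assessed in parallel by MTT viability; thienopyridines and diaminoacridine served as controls.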

[11] = as above; assay type: cell-based; details: human, Tat-hybrid reporter cell lines (HeLa); Table 6; second 'EC50' entry of the cell, values D/E
Outline: as §6

U1 cells = experiment: MTT cell viability in parallel with the U1 assay; assay type: cell-based; details: Table 6; read-out: U1 TC50
Description: as §5

T1 sequence (P04608 whole entry, looked up, the tested form may be a part): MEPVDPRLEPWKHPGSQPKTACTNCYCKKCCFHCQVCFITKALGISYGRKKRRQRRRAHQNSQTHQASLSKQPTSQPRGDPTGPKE
T1 sequence (P04618 whole entry, looked up, the tested form may be a part): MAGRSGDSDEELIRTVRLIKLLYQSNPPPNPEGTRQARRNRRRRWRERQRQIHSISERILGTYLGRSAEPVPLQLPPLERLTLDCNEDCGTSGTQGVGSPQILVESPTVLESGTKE
T2 sequence (P04608 whole entry, looked up): as the sequence (P04608 whole entry, looked up, the tested form may be a part) above
T2 sequence (P04618 whole entry, looked up): as the sequence (P04618 whole entry, looked up, the tested form may be a part) above
T3 sequence (P04608 1-72): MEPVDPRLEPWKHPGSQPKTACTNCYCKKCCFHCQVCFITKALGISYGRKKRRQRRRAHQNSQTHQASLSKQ

For `Nc1ccc2cc3ccc(N)cc3nc2c1` [3,6 diaminoacridine, reference compound], which “inhibition of the Rev-RRE interaction by EMSA” value (Rev-RRE IIB interaction [1]) is on record?
The value was “inhibition of Rev-RRE formation is observed”.

And the “activity in the Tat-hybrid reporter assay” value (Rev-RRE IIB interaction [2])?
Its value is “inhibits expression of the reporter”.

With `Cc1cn([C@H]2C[C@H](N=[N+]=[N-])[C@@H](CO)O2)c(=O)[nH]c1=O` [AZT] as the compound, how does the CC50 (PBMC) read?
Its CC50 is less than 40 µM.

With `COc1ccc(-c2cncc3sc(C(N)=O)cc23)cc1` [Compound 4a, 4-(4-methoxyphenyl)thieno[2,3-c]pyridine-2-carboxamide] as the compound, how does the half-life [3] read?
Its half-life is 8 min.

And the “expression of the HIV RRE IIb reporter” value [4]?
Its value is “significantly inhibited”.

And the solubility [5]?
Its solubility is 0.44 µM (≈ 0.125 µg/mL).

And the “expression of the HIV TAR reporter” value [6]?
Its value is “not similarly inhibited”.

And the IC50 (HIV-1 isolate NL4-3)?
Its IC50 is less than 0.1 µM.

What about the “activity in the Tat-hybrid reporter assay” value (Rev-RRE IIB interaction [2]) of the same compound?
Its value is “low-nM potency”.

What about the “potency in the U1 assay” value [7] of the same compound?
The value was “low-nM potency”.

What about the IC50 ([7]; Human immunodeficiency virus 1, Table 2, read-out: U1 cell IC50) of the same compound?
The IC50 was less than 0.1 µM.

What about the EC50 [8] of the same compound?
Its EC50 is 0.1 to 0.5 µM.

And the Papp (Caco-2 permeability)?
The Papp was 594 nm/s.

Which “effect on Vpu-dependent degradation of Rev” value [9] does the source give for `CC(C)C[C@@H](C=O)NC(=O)[C@H](CC(C)C)NC(=O)[C@H](CC(C)C)NC(=O)OCc1ccccc1` [MG132] (Cbz-Leu-Leu-Leu-aldehyde) here?
The value was “blocks Vpu-dependent degradation of Rev”.

Which “Tat hybrid cell viability at 50,000 nM” value [10] does the source give for `CN(C)c1ccnc2sc(C(N)=O)c(N)c12` [drawing 241] here?
Its value is “Y (Y = 30-60%)”.

And the EC50 at 48 h [11]?
The EC50 at 48 h was greater than 40 µM.

What about the CC50 (U1 cells) of the same compound?
Its CC50 is greater than 40 µM.

And the IC50 ([7]; Table 6, read-out: U1 IC50)?
The IC50 was greater than 0.5 µM.
